Source: the OligoGym collection
HELM strings list units from the 5' end as sugar, base in round brackets, then linkage (d deoxyribose, r ribose, m 2'-O-methyl, p phosphodiester). Strings are as the collection lists them; they lack the last nucleoside at the 3' end of the tested compound. [moe] = 2'-O-(2-methoxyethyl) (MOE); [sp] = phosphorothioate linkage; [m5C] = 5-methylcytosine

The substances below were run against ATXN2 (assay: mouse, dose not given). Settings: ASO.

| Substance | 3 h FOB score [score 0-7] |
| --- | --- |
| RNA1{[moe](T)[sp].[moe]([m5C])p.[moe](A)p.[moe](T)p.[moe]([m5C])[sp].d(A)[sp].d(T)[sp].d(T)[sp].d(T)[sp].d(T)[sp].d([m5C])[sp].d([m5C])[sp].d(A)[sp].[moe](G)p.[moe](G)p.[moe](G)[sp].[moe]([m5C])}$$$$ (last 3' nucleoside missing) | 1 |
| RNA1{[moe](T)[sp].[moe]([m5C])p.[moe](G)p.[moe](T)p.[moe](A)p.d(T)[sp].d(G)[sp].d(T)[sp].d(T)[sp].d(T)[sp].d(G)[sp].d(T)[sp].d([m5C])[sp].d(T)[sp].d(G)[sp].[moe](T)p.[moe]([m5C])p.[moe](T)[sp].[moe](T)}$$$$ (last 3' nucleoside missing) | 6.25 |
| RNA1{[moe](T)[sp].[moe]([m5C])p.[moe](T)p.[moe](A)p.[moe](T)[sp].d(T)[sp].d(T)[sp].d([m5C])[sp].d(T)[sp].d(T)[sp].d(T)[sp].d(G)[sp].d(T)[sp].[moe]([m5C])p.[moe]([m5C])p.[moe](A)[sp].[moe](G)}$$$$ (last 3' nucleoside missing) | 5 |
| RNA1{[moe](T)[sp].[moe]([m5C])p.[moe](T)p.[moe](A)p.[moe](T)p.d(T)[sp].d(T)[sp].d([m5C])[sp].d(T)[sp].d(T)[sp].d(T)[sp].d(G)[sp].d(T)[sp].d([m5C])[sp].d([m5C])[sp].[moe](A)p.[moe](G)p.[moe](G)[sp].[moe](A)}$$$$ (last 3' nucleoside missing) | 6.5 |
| RNA1{[moe](T)[sp].[moe]([m5C])p.[moe](T)p.[moe](G)[sp].[moe](T)[sp].d(A)[sp].d([m5C])[sp].d(T)[sp].d(T)[sp].d(T)[sp].d(T)[sp].d([m5C])[sp].d(T)[sp].d([m5C])[sp].d(A)[sp].[moe](T)p.[moe](G)p.[moe](T)[sp].[moe](G)}$$$$ (last 3' nucleoside missing) | 1 |
| RNA1{[moe](T)[sp].[moe]([m5C])p.[moe](T)p.[moe](G)p.[moe](T)[sp].d(A)[sp].d([m5C])[sp].d(T)[sp].d(T)[sp].d(T)[sp].d(T)[sp].d([m5C])[sp].d(T)[sp].[moe]([m5C])p.[moe](A)p.[moe](T)[sp].[moe](G)}$$$$ (last 3' nucleoside missing) | 0.5 |
| RNA1{[moe](T)[sp].[moe]([m5C])p.[moe](T)p.[moe](G)p.[moe](T)[sp].d(A)[sp].d([m5C])[sp].d(T)[sp].d(T)[sp].d(T)[sp].d(T)[sp].d([m5C])[sp].d(T)[sp].d([m5C])[sp].d(A)[sp].[moe](T)p.[moe](G)p.[moe](T)[sp].[moe](G)}$$$$ (last 3' nucleoside missing) | 0 |
| RNA1{[moe](T)[sp].[moe]([m5C])p.[moe](T)p.[moe](G)p.[moe](T)p.[moe](A)p.d([m5C])[sp].d(T)[sp].d(T)[sp].d(T)[sp].d(T)[sp].d([m5C])[sp].d(T)[sp].d([m5C])[sp].d(A)[sp].d(T)[sp].[moe](G)p.[moe](T)[sp].[moe](G)}$$$$ (last 3' nucleoside missing) | 1 |
| RNA1{[moe](T)[sp].[moe]([m5C])p.[moe](T)p.[moe](G)p.[moe](T)p.d(A)[sp].d([m5C])[sp].d(T)[sp].d(T)[sp].d(T)[sp].d(T)[sp].d([m5C])[sp].d(T)[sp].d([m5C])[sp].d(A)[sp].[moe](T)p.[moe](G)p.[moe](T)[sp].[moe](G)}$$$$ (last 3' nucleoside missing) | 0 |
| RNA1{[moe](T)[sp].[moe]([m5C])p.[moe](T)p.[moe](G)p.[moe]([m5C])[sp].d(T)[sp].d(A)[sp].d(A)[sp].d([m5C])[sp].d(T)[sp].d(G)[sp].d(G)[sp].d(T)[sp].[moe](T)p.[moe](T)p.[moe](G)[sp].[moe]([m5C])}$$$$ (last 3' nucleoside missing) | 2 |
| RNA1{[moe](T)[sp].[moe]([m5C])p.[moe](T)p.[moe](G)p.[moe]([m5C])p.d(T)[sp].d(A)[sp].d(A)[sp].d([m5C])[sp].d(T)[sp].d(G)[sp].d(G)[sp].d(T)[sp].d(T)[sp].d(T)[sp].[moe](G)p.[moe]([m5C])p.[moe]([m5C])[sp].[moe]([m5C])}$$$$ (last 3' nucleoside missing) | 3 |
| RNA1{[moe](T)[sp].[moe]([m5C])p.[moe](T)p.[moe](G)p.d(T)[sp].d(A)[sp].d([m5C])[sp].d(T)[sp].d(T)[sp].d(T)[sp].d(T)[sp].d([m5C])[sp].d(T)[sp].d([m5C])[sp].[moe](A)p.[moe](T)p.[moe](G)p.[moe](T)[sp].[moe](G)}$$$$ (last 3' nucleoside missing) | 0 |
| RNA1{[moe](T)[sp].[moe]([m5C])p.[moe](T)p.[moe](T)p.[moe](G)p.d(T)[sp].d(T)[sp].d(G)[sp].d(T)[sp].d(T)[sp].d(G)[sp].d(T)[sp].d(T)[sp].d(T)[sp].d(A)[sp].[moe]([m5C])p.[moe](A)p.[moe](T)[sp].[moe](T)}$$$$ (last 3' nucleoside missing) | 3 |
| RNA1{[moe](T)[sp].[moe]([m5C])p.[moe](T)p.[moe]([m5C])p.[moe](T)[sp].d(A)[sp].d(T)[sp].d(T)[sp].d(T)[sp].d([m5C])[sp].d(T)[sp].d(T)[sp].d(T)[sp].[moe](G)p.[moe](T)p.[moe]([m5C])[sp].[moe]([m5C])}$$$$ (last 3' nucleoside missing) | 1 |
| RNA1{[moe](T)[sp].[moe]([m5C])p.[moe](T)p.[moe]([m5C])p.[moe](T)p.d(A)[sp].d(T)[sp].d(T)[sp].d(T)[sp].d([m5C])[sp].d(T)[sp].d(T)[sp].d(T)[sp].d(G)[sp].d(T)[sp].[moe]([m5C])p.[moe]([m5C])p.[moe](A)[sp].[moe](G)}$$$$ (last 3' nucleoside missing) | 6.75 |
| RNA1{[moe](T)[sp].[moe]([m5C])p.[moe](T)p.[moe]([m5C])p.[moe]([m5C])[sp].d(A)[sp].d(T)[sp].d(T)[sp].d(A)[sp].d(T)[sp].d(T)[sp].d(T)[sp].d([m5C])[sp].[moe](T)p.[moe](T)p.[moe]([m5C])[sp].[moe](A)}$$$$ (last 3' nucleoside missing) | 1 |
| RNA1{[moe](T)[sp].[moe]([m5C])p.[moe](T)p.[moe]([m5C])p.[moe]([m5C])p.d(A)[sp].d(T)[sp].d(T)[sp].d(A)[sp].d(T)[sp].d(T)[sp].d(T)[sp].d([m5C])[sp].d(T)[sp].d(T)[sp].[moe]([m5C])p.[moe](A)p.[moe]([m5C])[sp].[moe](G)}$$$$ (last 3' nucleoside missing) | 0.75 |
| RNA1{[moe](T)[sp].[moe]([m5C])p.[moe]([m5C])p.[moe](A)p.[moe](A)p.d(G)[sp].d(T)[sp].d(A)[sp].d(A)[sp].d([m5C])[sp].d(A)[sp].d(G)[sp].d(T)[sp].d(G)[sp].d(T)[sp].[moe](A)p.[moe](G)p.[moe](A)[sp].[moe](A)}$$$$ (last 3' nucleoside missing) | 4 |
| RNA1{[moe](T)[sp].[moe]([m5C])p.[moe]([m5C])p.[moe](A)p.[moe](A)p.d(T)[sp].d(T)[sp].d(T)[sp].d([m5C])[sp].d(A)[sp].d(G)[sp].d(A)[sp].d([m5C])[sp].d(T)[sp].d(T)[sp].[moe]([m5C])p.[moe](T)p.[moe](T)[sp].[moe](G)}$$$$ (last 3' nucleoside missing) | 2 |
| RNA1{[moe](T)[sp].[moe]([m5C])p.[moe]([m5C])p.[moe](A)p.[moe](T)p.d(T)[sp].d(A)[sp].d(T)[sp].d(T)[sp].d(T)[sp].d([m5C])[sp].d(T)[sp].d(T)[sp].d([m5C])[sp].d(A)[sp].[moe]([m5C])p.[moe](G)p.[moe](T)[sp].[moe](T)}$$$$ (last 3' nucleoside missing) | 1 |
| RNA1{[moe](T)[sp].[moe]([m5C])p.[moe]([m5C])p.[moe](T)p.[moe](A)[sp].d(T)[sp].d([m5C])[sp].d(A)[sp].d(T)[sp].d([m5C])[sp].d(A)[sp].d(T)[sp].d(T)[sp].[moe](T)p.[moe](T)p.[moe]([m5C])[sp].[moe]([m5C])}$$$$ (last 3' nucleoside missing) | 1 |
| RNA1{[moe](T)[sp].[moe]([m5C])p.[moe]([m5C])p.[moe](T)p.[moe](A)p.d(T)[sp].d([m5C])[sp].d(A)[sp].d(T)[sp].d([m5C])[sp].d(A)[sp].d(T)[sp].d(T)[sp].d(T)[sp].d(T)[sp].[moe]([m5C])p.[moe]([m5C])p.[moe](A)[sp].[moe](G)}$$$$ (last 3' nucleoside missing) | 3.75 |
| RNA1{[moe](T)[sp].[moe]([m5C])p.[moe]([m5C])p.[moe](T)p.[moe](T)p.d(G)[sp].d(T)[sp].d(T)[sp].d(G)[sp].d(T)[sp].d(A)[sp].d(T)[sp].d(G)[sp].d(G)[sp].d(T)[sp].[moe](A)p.[moe](A)p.[moe](T)[sp].[moe](T)}$$$$ (last 3' nucleoside missing) | 5 |
| RNA1{[moe]([m5C])[sp].[moe](A)p.[moe](G)p.[moe](A)p.[moe](A)p.d(A)[sp].d(G)[sp].d([m5C])[sp].d(T)[sp].d(G)[sp].d(T)[sp].d(G)[sp].d(T)[sp].d(G)[sp].d(T)[sp].[moe](T)p.[moe](T)p.[moe](A)[sp].[moe](A)}$$$$ (last 3' nucleoside missing) | 6 |
| RNA1{[moe]([m5C])[sp].[moe](A)p.[moe](G)p.[moe](T)p.[moe](G)p.d(T)[sp].d(T)[sp].d(G)[sp].d([m5C])[sp].d(A)[sp].d([m5C])[sp].d(A)[sp].d(T)[sp].d(A)[sp].d(G)[sp].[moe](G)p.[moe](T)p.[moe](T)[sp].[moe](A)}$$$$ (last 3' nucleoside missing) | 5 |
| RNA1{[moe]([m5C])[sp].[moe](A)p.[moe](G)p.[moe](T)p.[moe](G)p.d([m5C])[sp].d([m5C])[sp].d(T)[sp].d(T)[sp].d(T)[sp].d(A)[sp].d([m5C])[sp].d([m5C])[sp].d([m5C])[sp].d([m5C])[sp].[moe](T)p.[moe](T)p.[moe](G)[sp].[moe](A)}$$$$ (last 3' nucleoside missing) | 5.25 |
| RNA1{[moe]([m5C])[sp].[moe](A)p.[moe](G)p.[moe]([m5C])p.[moe](A)p.d(T)[sp].d(G)[sp].d(A)[sp].d(T)[sp].d([m5C])[sp].d(T)[sp].d(T)[sp].d(G)[sp].d(T)[sp].d(G)[sp].[moe](T)p.[moe](A)p.[moe](T)[sp].[moe](A)}$$$$ (last 3' nucleoside missing) | 2.25 |
